Where two headings read alike, the source gives them in different places.
Legend:
TxB2 = experiment: reverse passive Arthus pleurisy assay, TxB2; format: in vivo, rat (male Lewis); conditions: for ED50: Rattus norvegicus, po, read-out: ED50 TxB2; for ED50 / ED50 TxB2: 5 min
Description: (§1) The compounds of the invention are further tested in the reverse passive Arthus pleurisy assay to evaluate their effectiveness in inflammatory mediator release and/or the fluid and cellular phases of an inflammatory response.
(§2) A reverse passive Arthus reaction is induced in the pleural cavity of male Lewis rats (150-200 g; fasted overnight prior to use) by the intravenous administration of bovine serum albumin (BSA; 4 mg/0.2 ml) followed by 30 minutes later by the injection of rabbit anti-BSA (1 mg/0.2 ml; lyophilized IgG fraction; Organon Teknika, West Chester, Pa.) into the right pleural space under halothane anesthesia. Drugs or vehicle (0.5% Tween-80) control are administered orally in a volume of 1 ml/100 g body weight at 1 hour prior to the anti-BSA. Animals are sacrificed at either the time of peak eicosanoid production (i.e. 5 minutes after anti-BSA for immunoreactive TxB2 10 minutes for immunoreactive LTB4, 20 minutes for immunoreactive LTC4) or at the time of peak neutrophil infiltration (4 hours after anti-BSA) by CO2 inhalation. The pleural cavity is then exposed, the fluid exudate removed by gentle vacuum aspiration and the volume of exudate is recorded. For the determination of cellular infiltration, the pleural cavity is rinsed with 3 ml of 0.1% EDTA in sterile saline, and the recovered wash is pooled with the exudate. Cell number is determined on a model ZBI Coulter counter. For determination of eicosanoid production, undiluted pleural exudate is microfuged and the supernatant is extracted with ethanol (8-10 times volume). Extracts are either stored at -20° C., or are evaporated to dryness under a stream of N2 and reconstituted in radioimmunoassay (RIA) buffer.
(§3) Eicosanoids are quantitated by RIA according to the procedure specified by the RIA kit manufacturer (Advanced Magnetics, Cambridge, Mass.). Briefly, 100 μl of ^3 H-labeled eicosanoid and 100 μl of specific antibody are sequentially added to 100 μl of extracted pleural exudate in BGG -phosphate buffer which contains 0.01M phosphate, 0.1% bovine gamma globulin and 0.1% sodium azide at pH 7.0. Antibody-bound eicosanoid is separated from unbound eicosanoid by the addition of 750 μl of dextran (0.4%)-coated charcoal (0.4% Norit A) containing 0.1% sodium azide. The mixture is centrifuged at 2000 RPM at 5° C. for 15 minutes to pellet the charcoal and adsorbed unbound eicosanoid. Antibody-bound labeled eicosanoid is quantitated by counting in a liquid scintillation counter, and is correlated to concentration by a standard curve.
(§4) Inflammatory cells are expressed as 10^6 cells/ml, pleural exudate is expressed as ml of fluid, and the amount of eicosanoids in the pleural cavity is expressed as ng/ml of exudate. Mean±S.E.M. is determined for each group. Percent inhibition (% I) of cell number, exudate volume and eicosanoid production is calculated for vehicle-treated control groups, and the responses in drug-treated rats are then expressed as the mean % I of the control. […] Exp. Ther., 96, 99-113 (1949).

LTB4 = experiment: reverse passive Arthus pleurisy assay, LTB4; format: in vivo, rat (male Lewis); conditions: for ED50: Rattus norvegicus
Description: as §1, §2, §3, §4

Cellular Influx = experiment: reverse passive Arthus pleurisy assay, cellular influx; format: in vivo, rat (male Lewis); conditions: Rattus norvegicus, po, 4 h, 1 hour prior to anti-BSA; standard drugs
Description: as §1, §2, §4

Fluid Exudation = experiment: reverse passive Arthus pleurisy assay, fluid exudation; format: in vivo, rat (male Lewis); conditions: 1 hour prior to anti-BSA, standard drugs; for ED30: Rattus norvegicus, po; for ED30 Fluid Exudation: p.o.
Description: as §1, §2, §4

Human Synovial PLA2 = biological target: T1, Human Synovial PLA2 (Homo sapiens, UniProt P14555); experiment: in vitro isolated phospholipase A2 assay, human synovial fluid PLA2; format: biochemical; conditions: read-out: % Inhibition at 10 μM HSF
T1 construct: Purified human synovial fluid; from tissue; host or cells: human synovial fluid (purified)
T1 sequence (P14555 21-144): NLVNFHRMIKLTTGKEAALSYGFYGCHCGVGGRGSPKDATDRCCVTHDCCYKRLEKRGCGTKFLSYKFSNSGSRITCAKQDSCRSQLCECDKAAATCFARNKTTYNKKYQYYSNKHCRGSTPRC
Description: The compounds of the invention are tested in an in vitro isolated phospholipase A2 assay to determine the ability of the test compounds to inhibit the release of arachidonic acid from an arachidonic acid-containing substrate by the action of phospholipase A2 enzyme from human and non-human sources.
Into a 15 mL polypropylene tube are added the following:
^ 6 Two human PLA2 enzymes are used:
b) Purified human synovial fluid.
Incubate the 100 μL reaction mixture for 10 minutes at 37° C. in a shaking water bath. The reaction is terminated by the addition of 2 mL tetrahydrofuran, followed by vortexing. NH2 columns (100 μg/mL--Analytichem International) are conditioned with 0.5 mL tetrahydrofuran followed by 0.5 mL tetrahydrofuran/water (2 mL:0.1 mL, v/v).
The sample is loaded onto the columns and slowly drawn through them. The hydrolyzed arachidonic acid retained in the columns is eluted therefrom with 1 mL tetrahydrofuran/glacial acetic acid (2%). The arachidonic acid is transferred to scintillation vials and quantitated by β-counting analysis. A "total counts" sample is prepared by pipetting 25 μL ^3 H-arachidonate E. coli directly into a scintillation vial to which is added 1 mL tetrahydrofuran. 10 mL aquasol (scintillation cocktail) is added to all samples.

[1] = test system: LTB4 synthesis by rat glycogen-elicited polymorphonuclear leukocytes (PMN); experiment: inhibition of LTB4 synthesis by rat glycogen-elicited polymorphonuclear leukocytes (PMN); format: cell-based, rat (female Wistar); conditions: Leukocyte
Excerpt: This is especially true with respect to 5,12-diHETE, which is also denoted as LTB4 [see Ford-Hitchinson, J. Roy. […] Med., 74, 831 (1981)]. Compounds which inhibit the PLA2 -mediated release of arachidonic acid thereby effectively prevent the oxidation of arachidonic acid to the various leukotriene products via the lipoxygenase cascade. Accordingly, the specificity of action of PLA2 inhibitors can be determined by the activity of test compounds in this assay, which measures the ability of compounds to inhibit the synthesis of LTB4 by rat glycogen-elicited polymorphonuclear leukocytes (PMN) in the presence of exogenous substrate.
The assay is carried out as follows:
(§5) Rat polymorphonuclear leukocytes (PMNs) are obtained from female Wistar rats (150-200 g) which receive an injection of 6% glycogen (10 ml i.p.). Rats are sacrificed 18-24 hours post injection by CO2 asphyxiation and the elicited cells are harvested by peritoneal lavage using physiological saline (0.9% NaCl). The exudate is centrifuged at 400 xg for 10 minutes. The supernatant fluid is discarded and the cell pellet is resuspended to a concentration of 2.0×10^7 cells/mL in HBSS containing Ca^++ and Mg^++ and 10 μM L-cysteine.
(§6) To 1 mL aliquots of cell suspension, test drugs or vehicle are added, then preincubated at 37° C. for 10 minutes. A23187 (1 μM), [^3 H]-AA (3.0 μCi/mL) and unlabeled AA (1 μM) are then added and the samples are further incubated for 10 minutes. The reaction is terminated by centrifugation and pelleting cells. Supernatants are then analyzed by HPLC analysis on a 15 cm×4.6 mm ID supelcosil LC-18 (Supelco)(3M) column, using a two solvent system at a flow rate of 1.4 mL total flow as follows:
Gradient: (system is equilibrated with Solvent A)
Percent solvent changes are accomplished in a linear fashion.
Injections: 140 μL of each supernatant is injected directly onto column and ^3 H arachidonic acid metabolites are monitored using an on-line radioactivity detector (Ramona, IN/US, Fairfield, N.J.).
Standards: 10^4 -2.0×10^4 dpm of eicosanoids of interest are injected in 90 μL EtOH cocktail.
Results are expressed as percent inhibition at a given compound dose or as an IC50 value.

[2] = test system: PGE2 synthesis by rat glycogen-elicited polymorphonuclear leukocytes (cyclooxygenase); experiment: inhibition of PGE2 (cyclooxygenase product) synthesis by rat glycogen-elicited polymorphonuclear leukocytes; format: cell-based, rat (female Wistar); conditions: Leukocyte; for inhibition at 0.5 µM: read-out: % Inhibition (PGE2 synthesis)
Description: as §5, §6
In this assay, the procedure of Example 14 is carried out as described. However, in order to determine cyclooxygenase activity, the samples are cochromatographed with authentic reference [^3 H]-PGE2.

[3] = p.o., 1 hour prior to anti-BSA, standard drugs
[4] = at 10 μM, human synovial fluid, negative values denote potentiation of HSF
[5] = at 0.5 μM, negative values denote potentiation of cyclooxygenase
[6] = negative values denote potentiation of cyclooxygenase

C[C@H](C(=O)O)c1ccc2cc(OCc3ccc4ccccc4n3)ccc2c1.NC(CO)(CO)CO [Wy-50,295-A]
% Inh TxB2 (TxB2; 75 mg/kg p.o.): 0%

O=C1CCN(c2ccccc2)N1 [Phenidone]
ED50 (LTB4; po, 1 hour prior to anti-BSA, standard drugs, read-out: ED50 LTB4): 10 mg/kg | ED30 (Cellular Influx): 23 mg/kg | ED30 (Fluid Exudation): 21 mg/kg | ED50 (TxB2; [3]): 69 mg/kg

O=C(O)Cc1cccc(C(=O)c2ccc(OCc3ccc4ccccc4n3)cc2)c1 [Example 3, 3-[4-(2-Quinolinylmethoxy)benzoyl]benzene acetic acid]
inhibition at 10 µM (Human Synovial PLA2; [4]): 25.5% | inhibition at 0.5 µM [1]: 38% | inhibition at 10 µM [1]: 87% | inhibition at 0.5 µM [2, 5]: -8% | inhibition at 10 µM [2, 6]: 8%

COC(=O)CCc1nc(-c2ccc(OCc3ccc4ccccc4c3)cc2)c(-c2ccccc2)o1 [Example 6A, 4-[4-[2-Naphthalenylmethoxy]phenyl]-5-phenyl-2-oxazole propanoic acid methylester]
inhibition at 0.5 µM [1]: 63% | inhibition at 10 µM [1]: 94% | inhibition at 0.5 µM [2, 5]: -29% | inhibition at 10 µM [2, 6]: -79%

Cn1c(COc2ccc(-c3nc(CCC(=O)O)oc3-c3ccccc3)cc2)nc2ccccc21 [Example 7, 4-[4-[(1-Methyl-1H-benzimidazol-2-yl)methoxy]phenyl]-5-phenyl-2-oxazole propanoic acid]
inhibition at 10 µM [1]: 85%

C[C@@H]1C[C@H]2[C@@H]3CCC4=CC(=O)C=C[C@]4(C)[C@@]3(F)[C@@H](O)C[C@]2(C)[C@@]1(O)C(=O)CO [Dexamethasone]
ED30 (Cellular Influx): 0.13 mg/kg | ED30 Fluid Exudation (Fluid Exudation): 0.05 mg/kg p.o.

O=C(O)Cc1cccc(C(=O)c2ccc(OCc3ccc4ccccc4c3)cc2)c1 [Example 4, 3-[4-(2-Naphthalenylmethoxy)benzoyl]benzene acetic acid]
inhibition at 10 µM (Human Synovial PLA2; [4]): 15.1% | inhibition at 10 µM [1]: 8% | inhibition at 10 µM [2, 6]: -31%

O=C(O)Cc1ccc(-c2ccc(OCc3ccc4ccccc4n3)cc2)c(F)c1 [Example 9, 2-Fluoro-4'-(2-quinolinylmethoxy)[1,1'-biphenyl]-4-acetic acid, 2-amino-2-hydroxymethyl-1,3-propane diol]
ED50 (LTB4; reverse passive Arthus pleurisy, oral, read-out: ED50 (LTB4 Synthesis)): 0.8 mg/kg

CC(C(=O)O)c1cccc(C(=O)c2ccccc2)c1 (stereo not drawn) [ketoprofen]
inhibition at 10 µM (Human Synovial PLA2): -16.9% | ED50 (TxB2): 0.18 mg/kg

O=C(O)CCc1nc(-c2ccc(OCc3ccc4ccccc4c3)cc2)c(-c2ccccc2)o1 [Example 6, 4-[4-[2-Naphthalenylmethoxy]phenyl]-5-phenyl-2-oxazole propanoic acid]
inhibition at 0.5 µM [1]: 81% | inhibition at 10 µM [1]: 95% | inhibition at 10 µM [2, 6]: -191% | inhibition at 0.5 µM [2]: -12%

COc1ccc2cc([C@H](C)C(=O)O)ccc2c1 [Naproxen]
% Inh LTB4 (LTB4; 4 mg/kg p.o.): 0% | ED30 Fluid Exudation (Fluid Exudation): 3.9 mg/kg p.o. | ED50 TxB2 (TxB2; [3]): 0.24 mg/kg p.o.

CC(=O)c1ccc(-c2ccc(OCc3ccc4ccccc4n3)cc2)c([N+](=O)[O-])c1 [Example 1, 1-[2-Nitro-4'-(2-quinolinylmethoxy)-[1,1'-biphenyl]4-yl]ethanone]
inhibition at 0.5 µM [1]: 95% | inhibition at 0.5 µM [2, 5]: -13%

CN1C(C(=O)Nc2ccccn2)=C(O)c2ccccc2S1(=O)=O [Piroxicam]
ED30 (Cellular Influx): 3 mg/kg | ED30 (Fluid Exudation): 1 mg/kg

CN=C1CCN(c2cccc(C(F)(F)F)c2)N1 [BW540C]
ED50 LTB4 (LTB4; [3]): 30 mg/kg p.o. | ED50 TxB2 (TxB2; [3]): 19 mg/kg p.o.

O=C(O)Cc1ccccc1Nc1c(Cl)cccc1Cl [Diclofenac]
ED50 (TxB2): 6 mg/kg

O=C(O)Cc1ccc(-c2ccc(OCc3ccc4ccccc4n3)cc2)c(F)c1 [Example 2, 2-Fluoro-4'-(2-quinolinylmethyoxy)-[1,1'-biphenyl]-4-acetic acid]
inhibition at 0.5 µM [1]: 91% | inhibition at 0.5 µM [2]: -22%
